Measured values taken from patent publication US7033829B2, “Method to inhibit cell growth using oligonucleotides” (Trustees of Boston University, priority 2000, dated 2006).
Oligonucleotides are written 5' to 3', each unit as a sugar letter and its base; * is a phosphorothioate linkage, no mark a phosphodiester; rarer units and linkages stand in square brackets, end groups in braces. Plain capitals give the bases only. d = 2'-deoxy (DNA); {P} = phosphate

What was measured:
[1] = system: mitochondrial enzymes ATPase, cytochrome c oxidase and NADH dehydrogenase genes; assay: DNA microarray / RT-PCR / northern of mitochondrial genes in SCC12F; type: cell-based, human
Text: Exposure of keratinocytes to UVB irradiation affects the expression of genes involved in cell cycle arrest, DNA repair and cytokine production. Single-stranded oligonucleotides sharing sequence homology with the telomere 3′ overhang, when introduced into cells, mimic these UV effects. To identify other genes that may be similarly modulated, cells of keratinocyte origin (SCC12F; a human epidermal squamous cell carcinoma line provided by Dr. James Rheinwald of Harvard University) were exposed to solar simulated irradiation (SSR) (20 mJ/cm^2, measured at 285±5 nm), to an 11-base oligonucleotide (pGTTAGGGTTAG; SEQ ID NO:5) homologous to the telomere overhang (T-oligo), or to a complementary sequence as control [pCTAACCCTAAC; (SEQ ID NO:9) control oligonucleotide]. […] These are mitochondrial-transcribed genes whose encoded proteins participate in cellular respiration.

[2] = system: serine 15-phosphorylated p53, total p53, E2F1; assay: Western blot of p53 serine 15 phosphorylation and E2F1 in normal control fibroblasts; type: cell-based, human; conditions: 40 μM
Procedure: Because the serine 15 site on p53 is known to be phosphorylated in an ATM-dependent manner after exposure to ionizing radiation (IR), we wished to examine the role of ATM in E2F1 induction and p53 serine 15 phosphorylation in response to the 11 mer-1. Fibroblasts from a patient with ataxia telangiectasia (AT) known to lack functional ATM protein, and age-matched normal control fibroblasts (N) were treated with either diluent, 40 μM 11mer-1, sham irradiation or IR (10 Gy). Cells were collected 3 hours (sham or IR) or 48 hours (diluent, 11mer-1) for western blot analysis to detect serine 15-phosphorylated p53 and total p53. In normal fibroblasts, the 11mer-1 induced a 10–15 fold increase in the level p53 phosphorylation on serine 15 compared to diluent-treated controls.

[3] = system: tumor necrosis factor alpha gene (TNFα); assay: Northern blot of TNFα in keratinocytes; type: cell-based, human; conditions: 24–72 hours
Text: This immunomodulatory cytokine, known to be induced by UV irradiation, may thus be induced by T2. Use of locally applied DNA fragments, deoxynucleotides, dinucleotides, or dinucleotide dimers is useful in immunomodulation of cutaneous reactions and in treatment or prevention of diseases or conditions involving immune mediators.

[4] = system: Primary newborn fibroblasts; assay: Protection of fibroblasts against H2O2; type: cell-based; conditions: for cell yields higher compared to diluent pre-treated control: 10 μM 3 days, within 72 hours
Procedure: Primary newborn fibroblasts were treated for 3 days with 10 μM pTpT or diluent as control and then treated with 5×10^−5 or 5×10^−4 M H2O2. Within 72 hours of H2O2 exposure, cell yields of pTpT pre-treated cultures were 45±1% and 139±5% higher, respectively, compared to diluent pre-treated control samples. 72 hours after exposure of the […] H2O2 dose, only 9.6±2.4% of the diluent pre-treated cells survived.

[5] = system: Human melanoma cell lines CRL 1424, Malma, Sk Mel 2, and Sk Mel 28; assay: Cell yield of human melanoma cell lines; type: cell-based; conditions: 100 μM; one week; any of four cell lines
Procedure: Human melanoma cell lines CRL 1424, Malma, Sk Mel 2, and Sk Mel 28 were obtained from the American Type Culture Collection (ATCC). The cell lines were maintained in DME+2% calf serum, and dosed with either water (diluent) with DME, or 100 μM T2 in DME. One week after dosage, cells were collected and counted by Coulter™ counter.

[6] = system: Cu/Zn superoxide dismutase; assay: Cu/Zn superoxide dismutase mRNA in fibroblasts; type: cell-based; conditions: 48 and 72 hours after treatment
IL-10 = IL-10 mRNA (RT-PCR) and protein (ELISA) in keratinocytes; type: cell-based, human
Procedure: The immunomodulatory effect of pTpT was tested in vitro using human keratinocytes. Duplicate cultures of primary human keratinocytes were treated with pTpT, diluent or UVB irradiation (200 J/m^2) or sham irradiation. Cells were collected at various times after treatment and analyzed for IL-10 protein by ELISA and for IL-10 mRNA by RT-PCR. An increase in IL-10 mRNA was detected after 6 hours in irradiated cells and after 48 hours in pTpT treated cells. An increase in IL-10 protein of 18 pg/ml was detected 24 hours after irradiation and 15±2 pg/ml 72 hours after treatment with pTpT. […] In the allogenic MLR, T cell activation is measured as lymphocyte proliferation, measured by ^3H-thymidine incorporation. IL-10 activity of culture medium from the 72 hour pTpT sample was measured by addition of the >10 kD components (containing the 18 kD IL-10 protein). […] Thus, like UVB irradiation, pTpT induces IL-10 in human keratinocytes which is likely to cooperate with TNFα to inhibit contact hypersensitivity in pTpT treated skin.

[7] = system: Normal human neonatal fibroblasts; assay: Cell growth of normal neonatal fibroblasts; type: cell-based; conditions: 100 μM
Procedure: Normal human neonatal fibroblasts were plated in Falcon P35 culture dishes at a density of 9×10^4 cells/dish. The culture medium was DME+10% calf serum, 2 ml per plate. One day after plating, cultures were supplemented with either 100 μM T2 in DME or 100 μM A2 in DME, or water (control). Two plates were collected and counted before the additions to give a starting, or “day 0,” reading. Duplicate plates of each condition were harvested through five days after addition of the supplements and cell number determined. All cell counts were done by Coulter™ Counter.
In a second experiment, normal human neonatal fibroblasts were plated and cultured, as described above in Example 1 for SCC12F cells. Cultures were supplemented with either 100 μM T2 or water (control), and cells were harvested for cell counts. The cell yield in fibroblast cultures treated with T2 was reduced by 40% compared to that of paired control cultures after three days (FIG. 8). This corresponds to 4 population doublings in this time for control cells, compared with 3.6 doublings for T2-treated cells.

Substance	downregulation of 8 genes (microarray) [1] [%]	genes downregulated as early as ([1]; RT-PCR and northern blot) [h]	E2F1 levels [2]	increase in p53 phosphorylation on serine 15 compared to diluent ([2]; 48 hours)	level of total p53 ([2]; young adult donor, 48 hours)	TNFα gene expression (Northern blot) [3]	cell yields higher compared to diluent pre-treated control ([4]; 5×10^−4 M H2O2) [%]	cell yields higher compared to diluent pre-treated control ([4]; 5×10^−5 M H2O2) [%]	increase of cell survival ([4]; 5×10^−4 M H2O2)	protection of cell survival ([4]; low H2O2 dose)	cell yields [5]	increase of Cu/Zn superoxide dismutase mRNA levels [6]	increase in IL-10 protein (IL-10; 72 hours after treatment) [pg/mL]	time after which an increase in IL-10 mRNA was detected (IL-10; primary human keratinocytes) [h]	cell yield reduced compared to paired control cultures ([7]; after three days) [%]	population doublings ([7]; three days (control 4))
pGTTAGGGTTAG (DNA {P}-dGdTdTdAdGdGdGdTdTdAdG) [SEQ ID NO: 5]	> 50	48	induced E2F1 levels	10–15 fold	minimally induced	–	–	–	–	–	–	–	–	–	–	–
thymidine dinucleotide [pTpT]	–	–	–	–	–	induction of the tumor necrosis factor alpha gene	139±5	45±1	2–9 fold	complete protection	marked decreases in cell yields	greater than 3 fold	15 ± 2	48	40	3.6
